From ChEMBL document CHEMBL1126513, “Quinuclidine-based NK-1 antagonists I: 3-benzyloxy-1-azabicyclo[2.2.2]octanes” (Bioorg Med Chem Lett, 1993)

Molecular target: Substance-P receptor (Homo sapiens, UniProt P25103)
Assay: Displacement of [125]Substance P Binding from human Neurokinin NK1 receptor in CHO Cells

Chain of Substance-P receptor (P25103 whole entry): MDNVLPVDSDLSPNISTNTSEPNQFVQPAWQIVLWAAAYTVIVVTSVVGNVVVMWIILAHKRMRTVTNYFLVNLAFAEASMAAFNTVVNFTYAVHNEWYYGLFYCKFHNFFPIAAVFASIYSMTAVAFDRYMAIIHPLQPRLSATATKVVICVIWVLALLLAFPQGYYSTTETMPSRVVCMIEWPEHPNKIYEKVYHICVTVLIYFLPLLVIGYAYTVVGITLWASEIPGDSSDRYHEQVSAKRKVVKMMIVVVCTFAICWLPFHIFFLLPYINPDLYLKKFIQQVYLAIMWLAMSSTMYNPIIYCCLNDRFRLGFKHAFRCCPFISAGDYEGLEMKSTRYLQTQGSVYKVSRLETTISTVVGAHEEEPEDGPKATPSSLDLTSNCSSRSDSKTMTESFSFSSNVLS

Question: For `Cc1cccc(CO[C@H]2C3CCN(CC3)[C@H]2C(c2ccccc2)c2ccccc2)c1`, which IC50 is on record?
Answer: 21 nM

Question: With `O=C(N[C@H]1C2CCN(CC2)[C@H]1C(c1ccccc1)c1ccccc1)c1ccccc1` as the compound, how does the IC50 read?
Answer: > 1000 nM

Question: With `O=S(=O)(N[C@H]1C2CCN(CC2)[C@H]1C(c1ccccc1)c1ccccc1)c1ccccc1` as the compound, how does the IC50 read?
Answer: > 1000 nM

Question: Which IC50 does the source give for `c1ccc(CCN[C@H]2C3CCN(CC3)[C@H]2C(c2ccccc2)c2ccccc2)cc1` here?
Answer: 700 nM

Question: For `O=C(Nc1ccccc1)N[C@H]1C2CCN(CC2)[C@H]1C(c1ccccc1)c1ccccc1`, which IC50 is on record?
Answer: > 1000 nM

Question: `Cc1ccccc1CO[C@H]1C2CCN(CC2)[C@H]1C(c1ccccc1)c1ccccc1` was tested. Which IC50 did it give?
Answer: 183 nM

Question: With `Cc1ccc(C)c(CO[C@H]2C3CCN(CC3)[C@H]2C(c2ccccc2)c2ccccc2)c1` as the compound, how does the IC50 read?
Answer: 48 nM

Question: `O=C(Nc1ccccc1)O[C@H]1C2CCN(CC2)[C@H]1C(c1ccccc1)c1ccccc1` was tested. Which IC50 did it give?
Answer: > 1000 nM

Question: `S=C(Nc1ccccc1)N[C@H]1C2CCN(CC2)[C@H]1C(c1ccccc1)c1ccccc1` was tested. Which IC50 did it give?
Answer: > 1000 nM

Question: Which IC50 does the source give for `O=C(N[C@H]1C2CCN(CC2)[C@H]1C(c1ccccc1)c1ccccc1)Oc1ccccc1` here?
Answer: > 1000 nM

Question: How did the IC50 turn out when `c1ccc(CO[C@H]2C3CCN(CC3)[C@H]2C(c2ccccc2)c2ccccc2)cc1` was run?
Answer: 110000 nM

Question: Which IC50 does the source give for `Cc1ccc(CO[C@H]2C3CCN(CC3)[C@H]2C(c2ccccc2)c2ccccc2)cc1` here?
Answer: 290 nM

Question: Which IC50 does the source give for `Cc1ccc(CO[C@H]2C3CCN(CC3)[C@H]2C(c2ccccc2)c2ccccc2)cc1C` here?
Answer: 197 nM

Question: With `c1ccc(CN[C@H]2C3CCN(CC3)[C@H]2C(c2ccccc2)c2ccccc2)cc1` as the compound, how does the IC50 read?
Answer: 150 nM

Question: With `Cc1cc(C)cc(CO[C@H]2C3CCN(CC3)[C@H]2C(c2ccccc2)c2ccccc2)c1` [L-706125] as the compound, how does the IC50 read?
Answer: 1 nM
